The values below come from ChEMBL document CHEMBL6074708, “Advanced Delivery Systems and Novel Psilocin Derivatives for Enhanced Therapeutic Applications” (ACS Med Chem Lett, 2024).

5-hydroxytryptamine receptor 2A (Homo sapiens), sequence (P28223 whole entry): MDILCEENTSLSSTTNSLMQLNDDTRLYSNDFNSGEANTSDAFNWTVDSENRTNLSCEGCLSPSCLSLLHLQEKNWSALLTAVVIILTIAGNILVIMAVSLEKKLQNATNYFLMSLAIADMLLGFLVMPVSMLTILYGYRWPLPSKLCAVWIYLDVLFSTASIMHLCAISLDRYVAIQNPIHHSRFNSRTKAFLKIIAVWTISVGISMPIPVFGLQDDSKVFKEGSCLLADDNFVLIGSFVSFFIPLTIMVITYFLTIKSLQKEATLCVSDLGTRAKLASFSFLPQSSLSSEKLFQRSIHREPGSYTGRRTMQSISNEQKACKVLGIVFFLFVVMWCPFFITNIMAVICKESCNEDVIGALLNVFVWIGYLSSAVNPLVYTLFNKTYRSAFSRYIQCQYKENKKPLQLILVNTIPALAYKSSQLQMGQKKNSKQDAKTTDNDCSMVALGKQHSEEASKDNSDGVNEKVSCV

This test addresses 5-hydroxytryptamine receptor 2A (Homo sapiens) (UniProt P28223). Nature of the test: Displacement of [3H]ketanserin from human 5HT2A receptor expressed in HEK293 cells at 0 to 10000 nM preincubated with compound for 30 mins followed by [3H]ketanserin addition and measured after 60 mins by microBeta scintillation counter relative to psilocin. The conditions noted are these: dose 0-10000 nM, time 90.0 min. In kind it is cell-based.
`CN(C)CCc1c[nH]c2cccc(OC(=O)[C@H]3C[C@@H]3C(=O)Oc3cccc4[nH]cc(CCN(C)C)c34)c12`: the Activity result is recorded as “Active; Higher Activity Observed”.

Turning to `CN(C)CCc1c[nH]c2cccc(OC(=O)CCCC(=O)Oc3cccc4[nH]cc(CCN(C)C)c34)c12`, the Activity result is “Active; Higher Activity Observed”.

As to `CN(C)CCc1c[nH]c2cccc(OC(=O)C(C)(C)C(=O)Oc3cccc4[nH]cc(CCN(C)C)c34)c12`, the Activity result was “Active; Higher Activity Observed”.

Regarding `CN(C)CCc1c[nH]c2cccc(OC(=O)c3ccc(Br)cc3)c12`, the Activity result is on record as “Active; Same Activity Observed”.

For `CN(C)CCc1c[nH]c2cccc(OC(=O)c3cccc(C(=O)Oc4cccc5[nH]cc(CCN(C)C)c45)c3)c12`, the Activity entry was “Active; Higher Activity Observed”.

`CN(C)CCc1c[nH]c2cccc(O)c12`: the Activity result is reported as “Active; Same Activity Observed”.

For `CN(C)CCc1c[nH]c2cccc(OC(=O)CCC(=O)Oc3cccc4[nH]cc(CCN(C)C)c34)c12`, the Activity entry is listed as “Active; Higher Activity Observed”.

In the case of `CN(C)CCc1c[nH]c2cccc(OC(=O)c3ccccc3F)c12`, the Activity entry is listed as “Active; Same Activity Observed”.
